Data on 19 compounds can be found in US20190367516A1 (Bayer Pharma Aktiengesellschaft, priority 2015, published 2019).

Usually EC50 stands for the concentration needed to bring the measured effect to its halfway point.

Test [1] concerns the target T1, human M2 receptor (Homo sapiens, UniProt P08172).
T1 sequence (P08172 1-466): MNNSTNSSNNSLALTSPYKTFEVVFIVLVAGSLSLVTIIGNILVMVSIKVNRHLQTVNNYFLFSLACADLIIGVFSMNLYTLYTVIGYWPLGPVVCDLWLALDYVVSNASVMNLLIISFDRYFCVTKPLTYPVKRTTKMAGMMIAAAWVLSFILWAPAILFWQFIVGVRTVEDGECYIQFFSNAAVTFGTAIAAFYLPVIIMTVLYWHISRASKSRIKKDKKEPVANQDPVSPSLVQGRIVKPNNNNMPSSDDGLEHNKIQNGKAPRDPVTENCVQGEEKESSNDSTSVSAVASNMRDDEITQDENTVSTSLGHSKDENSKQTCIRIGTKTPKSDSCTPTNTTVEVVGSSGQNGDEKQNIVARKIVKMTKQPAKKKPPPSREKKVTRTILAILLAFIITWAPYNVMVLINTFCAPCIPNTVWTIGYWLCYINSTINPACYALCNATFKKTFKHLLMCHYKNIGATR
The note with it: for EC50: Receptor activity EC50, M2-GIRK1/4 activation test, acetylcholine at EC20, allosteric potency, in some cases mean values from two or more determinations; for Emax: read-out: Efficiency.

Test [2] has as its target T1, human M2 receptor. The class given is cell-based. The following applies: shift in the acetylcholine dose-response curve (Allosteric EC50 shift, GraphPad PRISM); α >1 = positive cooperativity.

In the case of `CC[C@H](NC(=O)c1cn(-c2c(F)cccc2F)c2nc(N3C[C@@H](O)CC3=O)ccc2c1=O)C(F)(F)F` [Example 333, 1-(2,6-Difluorophenyl)-7-[(4S)-4-hydroxy-2-oxopyrrolidin-1-yl]-4-oxo-N-[(2S)-1,1,1-trifluorobutan-2-yl]-1,4-dihydro-1,8-naphthyridine-3-carboxamide], at human M2 receptor [1], the EC50 came to 0.031 µM and the Emax is 94.5%. On human M2 receptor [2], the “Cooperativity (alpha factor)” value is given as 28.
Compound `C[C@H](NC(=O)c1cn(-c2c(F)cc(F)cc2Cl)c2nc(N3CCC(C)(C)C3=O)ccc2c1=O)C(F)(F)F` [Example 335, 1-(2-Chloro-4,6-difluorophenyl)-7-(3,3-dimethyl-2-oxopyrrolidin-1-yl)-4-oxo-N-[(2S)-1,1,1-trifluoropropan-2-yl]-1,4-dihydro-1,8-naphthyridine-3-carboxamide] displayed an EC50 on human M2 receptor [1] of 0.023 µM. The “Cooperativity (alpha factor)” value at human M2 receptor [2] was found to be 7.
`CC[C@H](NC(=O)c1cn(-c2c(F)cc(F)cc2Cl)c2nc(N3CCC(C)(C)C3=O)ccc2c1=O)C(F)(F)F` [Example 336, 1-(2-Chloro-4,6-difluorophenyl)-7-(3,3-dimethyl-2-oxopyrrolidin-1-yl)-4-oxo-N-[(2S)-1,1,1-trifluorobutan-2-yl]-1,4-dihydro-1,8-naphthyridine-3-carboxamide] registered an EC50 on human M2 receptor [1] of 0.012 µM. Also, the “Cooperativity (alpha factor)” value at human M2 receptor [2] worked out at 13.
For `O=C(N[C@@H](C1CC1)C(F)(F)F)c1cn(-c2c(F)cc(F)cc2Cl)c2nc(N3C[C@@H](O)CC3=O)ccc2c1=O` [Example 338, 1-(2-Chloro-4,6-difluorophenyl)-N-[(1 S)-1-cyclopropyl-2,2,2-trifluoroethyl]-7-[(4S)-4-hydroxy-2-oxopyrrolidin-1-yl]-4-oxo-1,4-dihydro-1,8-naphthyridine-3-carboxamide], in that order: 0.007 µM and 24.
In turn, `C[C@@H](COC(F)(F)F)NC(=O)c1cn(-c2c(F)cc(F)cc2F)c2nc(N3C[C@@H](O)CC3=O)ccc2c1=O` [Example 339, 7-[(4S)-4-Hydroxy-2-oxopyrrolidin-1-yl]-4-oxo-N-[(2S)-1-(trifluoromethoxy)propan-2-yl]-1-(2,4,6-trifluorophenyl)-1,4-dihydro-1,8-naphthyridine-3-carboxamide] came in with an EC50 on human M2 receptor [1] of 0.044 µM. Further, the “Cooperativity (alpha factor)” value on human M2 receptor [2] was determined as 26.
The corresponding values for `CC[C@H](NC(=O)c1cn(-c2c(F)cc(F)cc2Cl)c2nc(N3CCNC3=O)ccc2c1=O)C(F)(F)F` [Example 340, 1-(2-Chloro-4,6-difluorophenyl)-4-oxo-7-(2-oxoimidazolidin-1-yl)-N-[(2S)-1,1,1-trifluorobutan-2-yl]-1,4-dihydro-1,8-naphthyridine-3-carboxamide] are 0.01 µM and 22.
The corresponding values for `O=C(NC1(C(F)(F)F)CCCC1)c1cn(-c2c(F)cc(F)cc2F)c2nc(N3C[C@@H](O)[C@H](O)C3)ccc2c1=O` [Example 350, 7-[(3R,4R)-3,4-Dihydroxypyrrolidin-1-yl]-4-oxo-N-[1-(trifluoromethyl)cyclopentyl]-1-(2,4,6-trifluorophenyl)-1,4-dihydro-1,8-naphthyridine-3-carboxamide] are 0.006 µM and 42.
For `CC(C)(C)[C@@H](NC(=O)c1cn(-c2c(F)cc(F)cc2F)c2nc(N3C[C@@H](O)CC3=O)ccc2c1=O)C(F)(F)F` [Example 357, 7-[(4S)-4-Hydroxy-2-oxopyrrolidin-1-yl]-4-oxo-N-[(2R)-1,1,1-trifluoro-3,3-dimethylbutan-2-yl]-1-(2,4,6-trifluorophenyl)-1,4-dihydro-1,8-naphthyridine-3-carboxamide], in that order: 0.004 µM and 63.
For the compound `O=C(NC12CC(C1)C2)c1cn(-c2c(F)cc(F)cc2F)c2nc(N3C[C@@H](O)CC3=O)ccc2c1=O` [Example 358, N-(Bicyclo[1.1.1]pent-1-yl)-7-[(4S)-4-hydroxy-2-oxopyrrolidin-1-yl]-4-oxo-1-(2,4,6-trifluorophenyl)-1,4-dihydro-1,8-naphthyridine-3-carboxamide], on human M2 receptor [1], the EC50 came out at 0.024 µM. Also, the “Cooperativity (alpha factor)” value at human M2 receptor [2] stood at 31.
Consider `O=C(N[C@@H](C1CC1)C(F)(F)F)c1cn(-c2c(F)cc(F)cc2F)c2nc(N3CCN(CCO)C3=O)ccc2c1=O` [Example 363, N-[(1 S)-1-Cyclopropyl-2,2,2-trifluoroethyl]-7-[3-(2-hydroxyethyl)-2-oxoimidazolidin-1-yl]-4-oxo-1-(2,4,6-trifluorophenyl)-1,4-dihydro-1,8-naphthyridine-3-carboxamide], for which the EC50 on human M2 receptor [1] was 0.045 µM. Moreover, the “Cooperativity (alpha factor)” value at human M2 receptor [2] is on record as 28.
At human M2 receptor [1], `O=C(N[C@@H](C1CC1)C(F)(F)F)c1cn(-c2c(F)cc(F)cc2F)c2nc(N3CCCN(CCO)C3=O)ccc2c1=O` [Example 364, N-[(1 S)-1-Cyclopropyl-2,2,2-trifluoroethyl]-7-[3-(2-hydroxyethyl)-2-oxotetrahydropyrimidin-1(2H)-yl]-4-oxo-1-(2,4,6-trifluorophenyl)-1,4-dihydro-1,8-naphthyridine-3-carboxamide] gave an EC50 of 0.016 µM. On human M2 receptor [2], the “Cooperativity (alpha factor)” value was determined as 25.
`CC[C@H](NC(=O)c1cn(-c2c(F)cc(F)cc2F)c2nc(N3CCCN(CCO)C3=O)ccc2c1=O)C(F)(F)F` [Example 365, 7-[3-(2-Hydroxyethyl)-2-oxotetrahydropyrimidin-1(2H)-yl]-4-oxo-N-[(2S)-1,1,1-trifluorobutan-2-yl]-1-(2,4,6-trifluorophenyl)-1,4-dihydro-1,8-naphthyridine-3-carboxamide] displayed an EC50 at human M2 receptor [1] of 0.021 µM. For the same compound, on human M2 receptor [2], the “Cooperativity (alpha factor)” value was 20.
For `O=C(NC12CC(C1)C2)c1cn(-c2c(F)cc(F)cc2F)c2nc(N3C[C@@H](O)[C@H](O)C3)ccc2c1=O` [Example 366, N-(Bicyclo[1.1.1]pent-1-yl)-7-[(3R,4R)-3,4-dihydroxypyrrolidin-1-yl]-4-oxo-1-(2,4,6-trifluorophenyl)-1,4-dihydro-1,8-naphthyridine-3-carboxamide], in that order: 0.035 µM and 36.
Regarding `CC(C)(C)[C@H](NC(=O)c1cn(-c2c(F)cc(F)cc2F)c2nc(N3C[C@@H](O)[C@H](O)C3)ccc2c1=O)C(F)(F)F` [Example 369, 7-[(3R,4R)-3,4-Dihydroxypyrrolidin-1-yl]-4-oxo-N-[(2S)-1,1,1-trifluoro-3,3-dimethylbutan-2-yl]-1-(2,4,6-trifluorophenyl)-1,4-dihydro-1,8-naphthyridine-3-carboxamide], at human M2 receptor [1], the EC50 was 0.008 µM and the Emax is 95%. Also, the “Cooperativity (alpha factor)” value at human M2 receptor [2] came out at 39.
The compound `O=C(NC12CC(C(F)(F)F)(C1)C2)c1cn(-c2c(F)cc(F)cc2F)c2nc(N3C[C@@H](O)[C@H](O)C3)ccc2c1=O` [Example 371, 7-[(3R,4R)-3,4-Dihydroxypyrrolidin-1-yl]-4-oxo-N-[3-(trifluoromethyl)bicyclo[1.1.1]pent-1-yl]-1-(2,4,6-trifluorophenyl)-1,4-dihydro-1,8-naphthyridine-3-carboxamide] yielded an EC50 on human M2 receptor [1] of 0.018 µM. The “Cooperativity (alpha factor)” value at human M2 receptor [2] is given as 36.
The corresponding values for `O=C(NC12CC(C(F)(F)F)(C1)C2)c1cn(-c2c(F)cc(F)cc2F)c2nc(N3C[C@@H](O)CC3=O)ccc2c1=O` [Example 372, 7-[(4S)-4-Hydroxy-2-oxopyrrolidin-1-yl]-4-oxo-N-[3-(trifluoromethyl)bicyclo[1.1.1]pent-1-yl]-1-(2,4,6-trifluorophenyl)-1,4-dihydro-1,8-naphthyridine-3-carboxamide] are 0.02 µM and 34.
For `CC[C@H](NC(=O)c1cn(-c2c(F)cc(F)cc2F)c2nc(N3CCN/C3=N\C(=O)OC)ccc2c1=O)C(F)(F)F` [Example 377, Methyl {1-[5-oxo-6-{[(2S)-1,1,1-trifluorobutan-2-yl]carbamoyl}-8-(2,4,6-trifluorophenyl)-5,8-dihydro-1,8-naphthyridin-2-yl]imidazolidin-2-ylidene}carbamate], in that order: 0.048 µM and 34.
As for `CN(CCO)c1ccc2c(=O)c(C(=O)N[C@@H](C3CC3)C(F)(F)F)cn(-c3c(F)cc(F)cc3F)c2n1` [Example 384, N-[(1S)-1-Cyclopropyl-2,2,2-trifluoroethyl]-7-[(2-hydroxyethyl)(methyl)amino]-4-oxo-1-(2,4,6-trifluorophenyl)-1,4-dihydro-1,8-naphthyridine-3-carboxamide], the concentration for a half-maximal effect (EC50) on human M2 receptor [1] came to 0.028 µM. Further, at human M2 receptor [2], the “Cooperativity (alpha factor)” value was 22.
For `CN(CC(=O)O)c1ccc2c(=O)c(C(=O)N[C@@H](C3CC3)C(F)(F)F)cn(-c3c(F)cc(F)cc3F)c2n1` [Example 385, N-[6-{[(1S)-1-Cyclopropyl-2,2,2-trifluoroethyl]carbamoyl}-5-oxo-8-(2,4,6-trifluorophenyl)-5,8-dihydro-1,8-naphthyridin-2-yl]-N-methylglycine], in that order: 0.068 µM and 11.
